According to US20090221522A1, “METHODS TO CORRECT GENE SET EXPRESSION PROFILES TO DRUG SENSITIVITY” (The Johns Hopkins University, priority 2008, published 2009):

Test system: direct-patient pancreatic cancer xenografts
Assay: Xenograft treatment, relative tumor growth inhibition (TGI)
Format: in vivo, mice
Source text: Four- to six-week-old female athymic (nu/nu) mice were purchased from Harlan (Harlan Laboratories, Washington, D.C.). The research protocol was approved by the Johns Hopkins University Animal Use and Care Committee and animals were maintained in accordance to guidelines of the American Association of Laboratory Animal Care. Xenografts obtained from F1 mice were excised and cut into small ˜3×3×3 mm fragments and then implanted subcutaneously in a group of five to six mice for each patient, with two small fragments in each mouse (F2) as described above for the original carcinoma. Half of the rest of the carcinoma was cryopreserved in liquid nitrogen and the other half is processed for biological studies. When the carcinoma reached a size of 1,500 mm^3, they were excised, cut into ˜3×3×3 mm fragments, and transplanted to the final cohort of mice to be treated with the drugs (F3 and successive passages). Further details of the establishment of the direct-patient pancreatic cancer xenografts are described in Rubio-Viqueira B, Jimeno A, Cusatis G, et al. An In vivo Platform for Translational Drug Development in Pancreatic Cancer. Clin Cancer Res 2006 12:4652-61.
Gemcitabine (Eli Lilly, Indianapolis, Ind.) was dissolved in saline. In some embodiments, docetaxel (Sanofi-Aventis, Bridgewater, N.J.) was dissolved in 50% ethanol and 50% DMSO. In other embodiments, docetaxel (Sanofi-Aventis, Bridgewater, N.J.) was dissolved in ethanol/polysorbate 80 as a stock solution and diluted 10-fold in 5% glucose for in vivo studies. Temsirolimus (Wyeth Research, Colleville, Pa.) was dissolved in 10% ethanol, 10% pluronic, and 80% PBS. All drugs were freshly prepared and used at an injection volume of 0.2 mL/20 g body weight. Drug doses and treatment schedules were obtained from published studies.
Xenografts from this second mouse-to-mouse passage (F3) were allowed to grow to a size of ˜200 mm^3, at which time five-to-six mice were randomly assigned to control and treatment groups. […] For docetaxel treatment group, mice were treated with 20 mg/kg once a week via intraperitoneal injection. For temsirolimus treatment group, mice were treated with 20 mg/kg/day via intraperitoneal injection. Mice were treated for 21-28 days, monitored daily for signs of toxicity, and were weighed thrice a week. Tumor size was evaluated thrice a week by caliper measurements using the following formula: tumor volume=[length×width^2]/2 as reported by van de Vijver M J, He Y D, van't Veer L J, et al. A Gene-Expression Signature as a Predictor of Survival in Breast Cancer. N Engl J Med 2002 347:1999-2009.
Relative tumor growth index (TGI) was calculated as TGI=(Ti−T0/Ci−C0) if Ti>T0 (indicates tumor growth inhibition) and TGI=(Ti−T0) if Ti≦T0 (indicates tumor regression). T and C represent tumor size in the treated and control group at the last of experiment, respectively; T0 and C0 represent tumor size in the treated and control group at the start of treatment, respectively.

With Nc1ccn([C@@H]2O[C@H](CO)[C@@H](O)C2(F)F)c(=O)n1 [gemcitabine] as the compound, how does the “average TGI” value (five xenografts connected to gemcitabine sensitive NCI-60 cell lines) read?
Its value is −24%.

What about the “responders (TGI less than −30%, RECIST criterion)” value (of thirty xenografts, gemcitabine, PANC194, PANC266, PANC294, PANC140, PANC253) of the same compound?
Its value is “five responders”.

What about the TGI (xenograft PANC194, gemcitabine) of the same compound?
Its TGI is −63%.
